Reference: article PMC9404985, “Development of Dicationic Bisguanidine-Arylfuran Derivatives as Potent Agents against Gram-Negative Bacteria” (Antibiotics, 2022)

Columns and labels:
[1] = Cytotoxicity assay (PrestoBlue) HepG2; assay type: cell-based; details: human, HepG2 cells (hepatoma cell line), 24 h incubation
Protocol: The cytotoxicity levels of all compounds were evaluated against human Michigan Cancer Foundation-7 (MCF-7) and Hepatoma G2 cell line (HepG2) cell lines. MCF-7 is an extensively characterized breast cancer cell line isolated in 1970 [41], while HepG2 cells were derived from a hepatoma in 1975 [42]. Both cell lines grow robustly during in vitro culture and have been widely used for cytotoxicity testing. Cells of hepatic origin, such as HepG2, are of particular relevance for toxicity studies as many drugs accumulate in the liver during metabolic conversion. Cells were grown in Dulbecco’s Modified Eagle Medium supplemented with 10% fetal calf serum and kept in exponential growth, as previously reported. Before the assay, cells were reseeded into 96-well microtiter plates at a density allowing continued exponential growth and let to settle for 24 h. The compounds were added from a stock solution in DMSO, for a final concentration of 0.3% v/v of the solvent in the culture medium. After 24 h of incubation in presence of the compound, cell viability was assayed using PrestoBlue Cell Viability Reagent (resazurin-based solution, ThermoFisher, Waltham, MA, USA) according to the manufacturer’s instructions. […] Each assay contained a DMSO control at the equivalent starting concentration, positive control (uninhibited cell growth) and negative control (cell medium only). Survival was expressed as percentage of the solvent-only control. […] The Selectivity Index (SI) for each compound and bacterial strain was calculated as the ratio between the mean of the EC50 values for the two human cell lines and the EC50 for the bacterial strain in question ((EC50 MCF-7 + EC50 HepG2)/2)/EC50 bacterial strain).

[2] = tested on: P. aeruginosa (CCUG #59347); test: Antibacterial activity against isolates (Omnilog, Biolog redox dye); assay type: cell-based, Pseudomonas aeruginosa
Protocol: (§1) The antibacterial activities of eight compounds (1, 3, 4, 6, 8, 10, 16, and 17) were tested against 10 different isolates of Gram-negative bacteria from human and other sources, two E. coli (CCUG #67180 and CCUG #17620/ATCC #25922, control strain), two K. pneumoniae (CCUG #58547 and CCUG #225T), two P. aeruginosa (CCUG #17619 and CCUG #59347), two A. baumannii (CCUG #57035 and CCUG #57250), E. cloacae (CCUG #6323T), and E. hormaechei (CCUG #58962) in a 96-well plate format. […] Bacterial mass from the ten isolates grown overnight on horse blood or Mueller–Hinton agar plates was suspended in ca-MH and adjusted to a final inoculum cell density of ~5 × 10^5 CFU/mL. For all assays, Biolog redox dye A diluted 100× from the stock solution was used for measurements of all ten isolates (up to a total volume of 120 µL per well). All plates included one well per isolate with only inoculum and dye but no test compound (i.e., positive control) and one well per isolate with inoculum, dye and DMSO diluted 1667×, corresponding to the DMSO concentration in the wells with the highest concentration of test compound. All measurements were performed using the Omnilog microplate reader (Biolog, Hayward, CA, USA) where the 96-well plates were read at 15 min intervals for a total of 24 h at 37 °C.

[3] = tested on: A. baumannii (CCUG #57035); test: as above; assay type: cell-based, Acinetobacter baumannii
Protocol: as §1

[4] = tested on: A. baumannii (CCUG #57250); test: as above; assay type: cell-based, Acinetobacter baumannii
Protocol: (§2) The antibacterial activities of eight compounds (1, 3, 4, 6, 8, 10, 16, and 17) were tested against 10 different isolates of Gram-negative bacteria from human and other sources, two E. coli (CCUG #67180 and CCUG #17620/ATCC #25922, control strain), two K. pneumoniae (CCUG #58547 and CCUG #225T), two P. aeruginosa (CCUG #17619 and CCUG #59347), two A. baumannii (CCUG #57035 and CCUG #57250), E. cloacae (CCUG #6323T), and E. hormaechei (CCUG #58962) in a 96-well plate format. The compounds to test were 3-fold diluted in six steps in cation-adjusted Mueller-Hinton (ca-MH) broth to final concentrations spanning from 30 to 0.12 µM, i.e., a 1667–416,667 times dilution from the 50 mM stocks. Bacterial mass from the ten isolates grown overnight on horse blood or Mueller–Hinton agar plates was suspended in ca-MH and adjusted to a final inoculum cell density of ~5 × 10^5 CFU/mL. For all assays, Biolog redox dye A diluted 100× from the stock solution was used for measurements of all ten isolates (up to a total volume of 120 µL per well). All plates included one well per isolate with only inoculum and dye but no test compound (i.e., positive control) and one well per isolate with inoculum, dye and DMSO diluted 1667×, corresponding to the DMSO concentration in the wells with the highest concentration of test compound. All measurements were performed using the Omnilog microplate reader (Biolog, Hayward, CA, USA) where the 96-well plates were read at 15 min intervals for a total of 24 h at 37 °C.

E. cloacae (CCUG #6323T) = test: as above; assay type: cell-based, Enterobacter cloacae
Protocol: as §2

[5] = tested on: E. coli (CCUG #17620/ ATCC #25922); test: as above; assay type: cell-based, Escherichia coli
Protocol: as §2

E. coli (CCUG #67180) = test: as above; assay type: cell-based, Escherichia coli
Protocol: as §2

Plasmodium falciparum = tested on: Plasmodium falciparum; set-up: method as in PMID 28674055; details: erythrocyte stage; cited from earlier work
Trypanosoma cruzi = tested on: Trypanosoma cruzi; set-up: method as in earlier work; details: PubChem AID 1314398; read-out: effective against Trypanosoma cruzi; cited from earlier work
[6] = tested on: E. coli MG1655 (CGSC #6300); test: Antibacterial resazurin assay, laboratory strain
[7] = Pseudomonas aeruginosa, CCUG59347, ca-MH broth, 24 h, 37 °C
[8] = SI = ((EC50 MCF-7 + EC50 HepG2)/2)/EC50 bacterial strain
[9] = Acinetobacter baumannii, CCUG57035, ca-MH broth, 24 h, 37 °C
[10] = Enterobacter cloacae, ca-MH broth, 24 h, 37 °C
[11] = Escherichia coli, ca-MH broth, 24 h, 37 °C

Question: Which EC50 at 24 h [1] does the source give for `N=C(N)Nc1ccc(-c2ccc(-c3ccc(NC(=N)N)cc3Cl)o2)c(Cl)c1` [Compound 1, 2,5-Bis(2-chloro-4-guanidinophenyl)furan] here?
Answer: Its EC50 at 24 h is 43.4 µM.

Question: And the EC50 [2, 7]?
Answer: The EC50 was 5.3 µM.

Question: What about the EC90 [2, 7] of the same compound?
Answer: Its EC90 is 7.4 µM.

Question: And the “Selectivity index P. aeruginosa (CCUG #59347)” value [2, 8]?
Answer: The value was 7.3.

Question: What about the EC50 [3, 9] of the same compound?
Answer: The EC50 was 4.7 µM.

Question: And the EC90 [3, 9]?
Answer: The EC90 was 6.3 µM.

Question: And the “Selectivity index A. baumannii (CCUG #57035)” value [3, 8]?
Answer: Its value is 8.3.

Question: And the EC90 ([4]; Acinetobacter baumannii, CCUG57250, 24 h, ca-MH broth, 24 h, 37 °C)?
Answer: Its EC90 is 6.6 µM.

Question: What about the EC50 ([4]; Acinetobacter baumannii, CCUG57250, ca-MH broth, 24 h, 37 °C) of the same compound?
Answer: The EC50 was 4.4 µM.

Question: What about the “Selectivity index A. baumannii (CCUG #57250)” value [4, 8] of the same compound?
Answer: Its value is 8.7.

Question: And the EC50 (E. cloacae (CCUG #6323T); [10])?
Answer: The EC50 was 1 µM.

Question: What about the EC90 (E. cloacae (CCUG #6323T); [10]) of the same compound?
Answer: Its EC90 is 1.2 µM.

Question: And the “Selectivity index E. cloacae (CCUG #6323T)” value (E. cloacae (CCUG #6323T); [8])?
Answer: Its value is 37.2.

Question: And the EC50 [5, 11]?
Answer: The EC50 was 3.9 µM.

Question: And the EC90 [5, 11]?
Answer: Its EC90 is 6.3 µM.

Question: And the “Selectivity index E. coli (CCUG #17620/ ATCC #25922)” value [5, 8]?
Answer: The value was 9.9.

Question: What about the EC90 (E. coli (CCUG #67180); Escherichia coli, CCUG67180, 24 h, ca-MH broth, 24 h, 37 °C) of the same compound?
Answer: Its EC90 is 3.8 µM.

Question: What about the EC50 (E. coli (CCUG #67180); Escherichia coli, CCUG67180, ca-MH broth, 24 h, 37 °C) of the same compound?
Answer: Its EC50 is 3.2 µM.

Question: What about the “Selectivity index E. coli (CCUG #67180)” value (E. coli (CCUG #67180); [8]) of the same compound?
Answer: Its value is 12.2.

Question: And the EC50 (Plasmodium falciparum)?
Answer: The EC50 was 0.59 µM.

Question: What about the EC50 (Trypanosoma cruzi) of the same compound?
Answer: The EC50 was 0.29 µM.

Question: What about the EC50 ([6]; Escherichia coli, MG1655, 18 h, read-out: Eco EC50) of the same compound?
Answer: Its EC50 is 64.8 µM.

Question: What about the EC90 ([6]; Escherichia coli, MG1655, 18 h, read-out: Eco EC90) of the same compound?
Answer: The EC90 was 148 µM.

Question: What about the “Selectivity index E. coli” value ([6]; mean of MCF-7 and HepG2 EC50 over bacterial EC50, laboratory strain) of the same compound?
Answer: The value was 0.6.
